Reference: the supplement of paper PMC11451515

Test system: SEM cells
Test: cell viability relative to DMSO control; higher = less cytotoxic
Conditions: 48 h
Procedure, shortened: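 NOMO1 or SEM (500 cells/well) or P12-Ichikawa (1000 cells/well) leukemia cells were adapted for at least four passages in each medium. They were seeded in 1536-well plates (5 μl) and pin-dosed with library compounds in DMSO over an 11-point threefold series, 47 μM to 0.79 nM. CellTiter-Glo One luminescence was read after 48 h at 37°C. Viability is the per-plate percentage relative to DMSO wells, with cell-free wells as background.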

[1] = HPLM + 10% dialyzed FBS, 0.000781 µM
[2] = HPLM + 10% dialyzed FBS, 0.00234 µM
[3] = HPLM + 10% dialyzed FBS, 0.00702 µM
[4] = HPLM + 10% dialyzed FBS, 0.0211 µM
[5] = HPLM + 10% dialyzed FBS, 0.0632 µM
[6] = HPLM + 10% dialyzed FBS, 0.19 µM
[7] = HPLM + 10% dialyzed FBS, 0.569 µM
[8] = HPLM + 10% dialyzed FBS, 1.71 µM
[9] = HPLM + 10% dialyzed FBS, 5.12 µM
[10] = HPLM + 10% dialyzed FBS, 15.4 µM
[11] = HPLM + 10% dialyzed FBS, 46.1 µM
[12] = RPMI 5 mM glucose + 10% FBS, 0.000781 µM
[13] = RPMI 5 mM glucose + 10% FBS, 0.00234 µM
[14] = RPMI 5 mM glucose + 10% FBS, 0.00702 µM
[15] = RPMI 5 mM glucose + 10% FBS, 0.0211 µM
[16] = RPMI 5 mM glucose + 10% FBS, 0.0632 µM
[17] = RPMI 5 mM glucose + 10% FBS, 0.19 µM
[18] = RPMI 5 mM glucose + 10% FBS, 0.569 µM
[19] = RPMI 5 mM glucose + 10% FBS, 1.71 µM
[20] = RPMI 5 mM glucose + 10% FBS, 5.12 µM
[21] = RPMI 5 mM glucose + 10% FBS, 15.4 µM
[22] = RPMI 5 mM glucose + 10% FBS, 46.1 µM
[23] = RPMI 5 mM glucose + 10% dialyzed FBS, 0.000781 µM
[24] = RPMI 5 mM glucose + 10% dialyzed FBS, 0.00234 µM
[25] = RPMI 5 mM glucose + 10% dialyzed FBS, 0.00702 µM
[26] = RPMI 5 mM glucose + 10% dialyzed FBS, 0.0211 µM
[27] = RPMI 5 mM glucose + 10% dialyzed FBS, 0.0632 µM
[28] = RPMI 5 mM glucose + 10% dialyzed FBS, 0.19 µM
[29] = RPMI 5 mM glucose + 10% dialyzed FBS, 0.569 µM
[30] = RPMI 5 mM glucose + 10% dialyzed FBS, 1.71 µM
[31] = RPMI 5 mM glucose + 10% dialyzed FBS, 5.12 µM
[32] = RPMI 5 mM glucose + 10% dialyzed FBS, 15.4 µM
[33] = RPMI 5 mM glucose + 10% dialyzed FBS, 46.1 µM

Row | SMILES | cell viability [1] | cell viability [2] | cell viability [3] | cell viability [4] | cell viability [5] | cell viability [6] | cell viability [7] | cell viability [8] | cell viability [9] | cell viability [10] | cell viability [11] | cell viability [12] | cell viability [13] | cell viability [14] | cell viability [15] | cell viability [16] | cell viability [17] | cell viability [18] | cell viability [19] | cell viability [20] | cell viability [21] | cell viability [22] | cell viability [23] | cell viability [24] | cell viability [25] | cell viability [26] | cell viability [27] | cell viability [28] | cell viability [29] | cell viability [30] | cell viability [31] | cell viability [32] | cell viability [33]
1 | c1cc(-c2sc(-c3ccncc3)c(-c3ccncc3)c2-c2ccncc2)ccn1 | 90.9% | 107% | 108% | 110% | 106% | 116% | 107% | 82.4% | 43.3% | 20.7% | 14.9% | 89.6% | 87.8% | 93.9% | 89.3% | 106% | 97.9% | 101% | 63.5% | 29.6% | 17.9% | 13.2% | 102% | 101% | 118% | 113% | 106% | 110% | 103% | 67.3% | 41% | 22.4% | 15.1%
2 | CCc1cc(/C(C)=N/OCc2ccc(C3CCCCC3)c(C(F)(F)F)c2)ccc1CN1CC(C(=O)O)C1 | 104% | 117% | 112% | 109% | 104% | 115% | 120% | 117% | 99.8% | 87.1% | 82.9% | 92% | 108% | 109% | 109% | 105% | 109% | 106% | 99.9% | 96.2% | 82.2% | 70.2% | 114% | 116% | 125% | 123% | 126% | 124% | 137% | 132% | 118% | 106% | 94%
3 | c1ccc(-c2nn3c(c2-c2ccnc4cc(OCCN5CCOCC5)ccc24)CCC3)nc1 | 77.4% | 106% | 121% | 126% | 126% | 129% | 115% | 128% | 145% | 127% | 110% | 102% | 125% | 132% | 125% | 143% | 134% | 122% | 138% | 144% | 123% | 91.1% | 68.3% | 122% | 137% | 132% | 135% | 127% | 125% | 131% | 117% | 129% | 82.2%
4 | CC(C)(Cc1ccc2ccccc2c1)NC[C@@H](O)COc1cccc(Cl)c1C#N | 128% | 121% | 125% | 121% | 124% | 123% | 119% | 120% | 108% | 96.7% | 65.7% | 127% | 113% | 120% | 116% | 124% | 121% | 115% | 126% | 86% | 128% | 62.8% |  |  |  |  |  |  |  |  |  |  | 
5 | C[C@@]12OC(=O)[C@@]1(NC(=O)[C@@H]2CCCl)[C@@H](O)[C@H]\3CCC\C=C3 | 78.2% | 92.7% | 93.6% | 100% | 34.2% | 10% | 6.88% | 6.65% | 4.57% | 3.3% | 2.16% | 87.5% | 90.2% | 93.7% | 96.8% | 31.8% | 8.22% | 7.13% | 6.4% | 4.56% | 2.53% | 2.01% | 80.9% | 92% | 91.8% | 84% | 33.3% | 9.46% | 7.84% | 7.08% | 5.11% | 3.72% | 2.53%
6 | CCOc1cc2c(c(F)c1OCC)C(=N)N(CC(=O)c1cc(N3CCOCC3)c(OC)c(C(C)(C)C)c1)C2 | 96.2% | 95.6% | 95.7% | 101% | 94% | 110% | 117% | 108% | 104% | 97.8% | 59.8% | 110% | 98.1% | 93.9% | 113% | 111% | 103% | 114% | 121% | 108% | 107% | 52.5% | 83.9% | 105% | 99.8% | 101% | 119% | 116% | 117% | 124% | 117% | 125% | 74.4%
7 | Nc1cccc(-c2cc3c(Oc4cccc(O)c4)ncnc3[nH]2)c1 |  |  |  |  |  |  |  |  |  |  |  | 70.7% | 122% | 132% | 143% | 145% | 123% | 132% | 121% | 88.8% | 62.3% | 9.75% | 69.1% | 123% | 132% | 125% | 131% | 116% | 133% | 121% | 80.4% | 56% | 13.4%
8 | CCC(=O)O[C@@]1([C@H](C)C[C@H]2[C@@H]3C[C@H](F)\C4=C\C(=O)\C=C/[C@]4(C)[C@@]3(F)[C@@H](O)C[C@]12C)C(=O)SCF | 96.6% | 102% | 94.7% | 68% | 60.6% | 13.1% | 66.1% | 79.4% | 64.9% | 61.9% | 58% | 94.2% | 103% | 88.6% | 67.8% | 53.2% | 13.1% | 68.6% | 73% | 68.6% | 59.5% | 59.6% | 98.1% | 124% | 83.6% | 73.5% | 40.5% | 11.7% | 58.8% | 63.4% | 60.6% | 53.3% | 53.4%
9 | CC(C)c1ccc2oc3nc(N)c(C(=O)O)cc3c(=O)c2c1 | 106% | 109% | 96.6% | 109% | 126% | 108% | 128% | 115% | 106% | 118% | 102% | 116% | 131% | 122% | 122% | 145% | 134% | 150% | 121% | 134% | 140% | 137% | 98% | 118% | 134% | 141% | 141% | 131% | 143% | 127% | 146% | 146% | 129%
10 | COC1=CC=C(C=C1)C/2=C/OC3=CC(=CC=C3C2=O)O | 116% | 113% | 113% | 114% | 123% | 109% | 114% | 122% | 130% | 115% | 136% | 117% | 124% | 136% | 109% | 133% | 117% | 98.9% | 106% | 143% | 122% | 145% | 124% | 139% | 112% | 110% | 115% | 120% | 122% | 121% | 133% | 131% | 142%
11 | c1ccc2c(Oc3nc(Nc4ccc(N5CCOCC5)cc4)c4ncn(C5CCCCC5)c4n3)cccc2c1 | 91% | 96.7% | 101% | 112% | 120% | 116% | 131% | 120% | 99.7% | 100% | 67.1% | 101% | 122% | 138% | 133% | 133% | 136% | 125% | 139% | 108% | 105% | 67% | 108% | 141% | 115% | 130% | 142% | 129% | 126% | 109% | 126% | 110% | 53.4%
12 | CC1=C2N=C([NH]C2=CC(=C1)N3CCOCC3)\C4=C(NC[C@@H](O)C5=CC=CC(=C5)Cl)\C=C/NC4=O | 77.8% | 95.7% | 91.4% | 91.2% | 82.8% | 75.8% | 61.3% | 52.5% | 26.9% | 19.4% | 15.4% | 81.3% | 105% | 122% | 115% | 94.1% | 95.6% | 83.7% | 56.2% | 26.6% | 14.2% | 8.45% | 70.7% | 90.3% | 84.6% | 80.1% | 67.9% | 75.1% | 66.8% | 46.7% | 21.1% | 13.7% | 7.96%
13 | CC1(C)O[C@H]2CC(=O)OC[C@]23[C@H]2CC[C@@]4(C)[C@H](c5ccoc5)OC(=O)[C@H]5O[C@]54[C@]2(C)C(=O)C[C@@H]13 | 84.1% | 86.8% | 95.3% | 96.2% | 108% | 106% | 104% | 105% | 96.7% | 89.4% | 98.7% | 83.8% | 98.8% | 98.4% | 88.8% | 99.2% | 86% | 105% | 88.2% | 96.5% | 85.2% | 93.2% | 74.6% | 102% | 97.5% | 83.1% | 99% | 90% | 109% | 76.6% | 84.8% | 102% | 90%
14 | N#Cc1c(C2CCNCC2)cc(-c2c(O)cccc2OCC2CC2)nc1N | 108% | 106% | 107% | 109% | 114% | 115% | 108% | 108% | 100% | 77.4% | 34.2% | 103% | 107% | 106% | 115% | 121% | 110% | 97.3% | 118% | 102% | 82.8% | 29% | 98.7% | 108% | 104% | 104% | 106% | 108% | 101% | 98.1% | 85.3% | 72.6% | 43.7%
15 | CN(C)[C@H]\1[C@@H]2[C@@H](O)[C@@H]\3C(=C)C4=C(C(=CC=C4)O)C(=O)C3=C(\O)[C@@]2(O)C(=O)\C(=C1O)C(N)=O | 85.1% | 91.5% | 81.1% | 97.1% | 90.4% | 98.6% | 98.2% | 113% | 96.5% | 97.8% | 91.6% | 104% | 97.8% | 82.5% | 119% | 112% | 124% | 118% | 118% | 105% | 93.9% | 79.7% | 112% | 121% | 86.7% | 108% | 122% | 125% | 106% | 123% | 114% | 107% | 91.6%
